Measured values as given in US8198033B2, “Methods and materials for observing apoptosis” (Genentech, Inc., priority 2006, dated 2012).
Where a SMILES comes first, the peptide text is derived from it. The star is where a group is joined. Cbz = O=C(OCc1ccccc1)*; CH2F = FC*

What was measured:
Type in all cases: cell-based, human
[1] = system: AP2α, AP1/2β, clathrin heavy chain (CHC), dynamin; experiment: Immunoblot for cleavage of clathrin-dependent endocytosis machinery and caspases in cell lysates
Experimental: (b) Colo205 cells were treated as in (a) and analyzed by immunoblot for processing of specific components of various types of clathrin-associated endocytic trafficking.
Open arrows indicate cleavage products and solid arrows indicate full-length proteins.
(c) BJAB cells were treated with crosslinked Apo2L/TRAIL and processing of dynamin was determined by immunoblot.
The cells were analyzed by immunoblot for processing of caspase-8, caspase-9, caspase-3, and AP2α.
Human colorectal adenocarcinoma Colo205 cells human B cell lymphoma BJAB cells and human T cell carcinoma Jurkat wild type cells (A3 clone), FADD-deficient (E1) and caspase-8-deficient (I9.3) were cultured in RPMI 1640+10% fetal bovine serum (FBS)+2 mM glutamine+1000 U/ml Penicillin-Streptomycin (Life Technologies). Human cervical carcinoma HeLa-M cells human breast adenocarcinoma MCF7 and human colorectal adenocarcinomas HCT15, HCT8, SW948, Colo320, human fibrosarcoma HT180 (ATCC), HCT116 Bax(−/−), HCT116 Bax(+/−) were grown in 50:50 Dulbecco's modified Eagle's and FK12 medium+10% FBS+1000 U/ml Penicillin-Streptomycin. cDNA clones encoding temperature-sensitive dynamins were the G273D mutant and dominant negative K44A mutant dynamin-1 (Dyn^G273D and Dyn^K44A, respectively). Dyn^G273D was expressed from pHUSH-ProEx, a single retroviral plasmid tetracycline-inducible expression system constructed at Genentech. The cDNA was first cloned into a shuttle plasmid containing a CMV enhancer-promoter sequence with two copies of the tetracycline operator TetO2, then transferred via in vitro phage lamda-based recombination, or Gateway® technology (Invitrogen, Carlsbad), to a Moloney murine leukemia virus backbone vector in which the wild type Tet repressor is driven by a separate β-actin promoter and followed by an internal ribosomal entry sequence and puromycin selection cassette. Dyn^K44A was expressed from the 2-vector tetracycline-inducible retroviral expression system, pRevTet-On/pRev-Tre (Clontech), using serial infections. Retroviral vectors were transfected into Phoenix amphotropic Moloney Murine Leukemia Virus packaging cells using Lipofectamine 2000 […]. Retroviral particles were harvested and used in HeLa-M and BJAB cell infections as described previously (Simpson et al. J Cell Biol 137, 835-45, 1997). Dyn^G273 infected cells were puromycin selected (2-3 μg/ml) for 1-2 weeks and cloned either by manually picking individual HeLa-M colonies or by FACS sorting of resistant BJAB cells (gated for exclusion of propidium iodide) and single cell seeding in 96-well cell culture plates using an EPICS ELITE-ESP equipped with an Autoclone device (Coulter, Hialeah, Fla.). Cell clones were screened for uniformity of doxycycline inducible dynamin-1 expression by immunofluorescence microscopy. Dyn^K44A-infected cells were hygromycin B (400 μg/ml) and G418 (1 mg/ml) selected for 1-2 weeks. Induction with doxycycline (1 μg/ml) was performed at 32° C. for 72 hr as described previously (Damke et al. J Cell Biol 131, 69-80 1995). Vincristine sulfate (#T-117), Adriamycin.HCL (GR-319) were purchased from Biomol, tetracycline-free FBS from Hyclone, Puromycin from Clontech and Doxycyclin from Sigma. zVAD-fmk (asN-benzyloxycarbonyl-Val-Ala-Asp-fluoromethylketone) was obtained from MD Biosciences (#FK-009). […]

BJAB and Colo205 cells = experiment: Transferrin (Tf) endocytosis rate by flow cytometry; conditions: BJAB cells, zVAD-fmk 30 min then 4 hr crosslinked Apo2L/TRAIL
Experimental: The cells were then equilibrated on ice for 30 min with Alexa-647-conjugated Tf (^647TF) and uptake at 37° C. was measured by flow cytometry. Each endocytosis rate was derived from the slope of the initial linear phase of a 4 min uptake kinetics plot (a, inset). […] Rates were normalized to the DMSO treated sample (±SEM).
Sedimented cells were resuspended in cold 2% paraformaldehyde/PBS and mean fluorescence intensity of 10,000 cells quantified with a Coulter Epics Elite-ESP flow cytometer (Hialeah, Fla.). Endocytic rates were determined from linear slopes of steady-state internal/surface plots (see, e.g., Wiley, H. S. et. al, J Biol Chem 257, 4222-9 (1982)). For temperature-shift experiments, ice binding incubations were avoided. Instead, cells were preconditioned for 20 min and maintained at 30° C. or 38° C. in binding medium, incubated an additional 0 (control) or 20 min with ^647Tf, chilled on ice for 30 min, and processed for flow cytometry to determine internal/surface ^647Tf ratios.

BJAB or Colo205 cells = experiment: Immunoblot for cleavage of clathrin-pathway components after DNA-damaging agents
Experimental: BJAB or Colo205 cells were treated with vinblastine, or adriamycin for the indicated time and analyzed by immunoblot as in FIG. 1.
Human colorectal adenocarcinoma Colo205 cells human B cell lymphoma BJAB cells and human T cell carcinoma Jurkat wild type cells (A3 clone), FADD-deficient (E1) and caspase-8-deficient (I9.3) were cultured in RPMI 1640+10% fetal bovine serum (FBS)+2 mM glutamine+1000 U/ml Penicillin-Streptomycin (Life Technologies). Human cervical carcinoma HeLa-M cells human breast adenocarcinoma MCF7 and human colorectal adenocarcinomas HCT15, HCT8, SW948, Colo320, human fibrosarcoma HT180 (ATCC), HCT116 Bax(−/−), HCT116 Bax(+/−) were grown in 50:50 Dulbecco's modified Eagle's and FK12 medium+10% FBS+1000 U/ml Penicillin-Streptomycin. cDNA clones encoding temperature-sensitive dynamins were the G273D mutant and dominant negative K44A mutant dynamin-1 (Dyn^G273D and Dyn^K44A, respectively). Dyn^G273D was expressed from pHUSH-ProEx, a single retroviral plasmid tetracycline-inducible expression system constructed at Genentech. […]

DISC = DISC immunoprecipitation; conditions: BJAB cells chilled on ice
Experimental: (a) BJAB cells were equilibrated with ^647Tf on ice, incubated for the indicated uptake interval at 37° C. or on ice, then fluorescence quantified by flow cytometry. […] DISC-associated FADD and caspase-8 were visualized by immunoblot. (c, d) Dyn^G273D-transduced BJAB cells were treated with buffer (No Dox) or doxycyline (Dox) and shifted to 38° C. for 20 min to inactivate dynamin. The cells were treated with crosslinked Apo2L/TRAIL for the indicated amounts of time and the DISC was immunoprecipitated. DISC-associated FADD and caspase-8 were visualized by immunoblot (c) or DISC-associated caspase-8 activity was measured as described previously (Sharp et al. J Biol Chem 280, 19401-409, 2005).
BJAB cells (1×10^7 per time point) were treated with Flag-Apo2L/TRAIL cross-linked by anti-FLAG M2 Abs, collected, lysed, immunoprecipitated and the DISC was analyzed as described (see, e.g., Kischkel, F. C. et al., Immunity 12, 611-20 (2000)).

With `CC(C)[C@H](NC(=O)OCc1ccccc1)C(=O)N[C@@H](C)C(=O)N[C@@H](CC(=O)O)C(=O)CF` [zVAD-fmk, N-benzyloxycarbonyl-Val-Ala-Asp-fluoromethylketone, reference compound] (Cbz-Val-Ala-Asp-CH2F) the “Effect of pretreatment on ligand-induced cleavage of AP2α and CHC” value ([1]; BJAB cells, zVAD-fmk 20 μM 30 min then crosslinked Apo2L/TRAIL 1 μg/mL) was “prevented cleavage of AP2α and CHC” and the “Effect of pretreatment on Apo2L/TRAIL inhibition of Tf endocytosis” value (BJAB and Colo205 cells) was “substantially reversed this inhibition”.

With `COc1cccc2c1C(=O)c1c(O)c3c(c(O)c1C2=O)C[C@@](O)(C(=O)CO)C[C@@H]3O[C@H]1C[C@H](N)[C@H](O)[C@H](C)O1` [adriamycin] the “Cleavage of components of the clathrin machinery” value (BJAB or Colo205 cells) was “induced cleavage of components of the clathrin machinery, albeit with much slower kinetics than DR ligands”.

For `CC[C@]1(O)C[C@@H]2CN(CCc3c([nH]c4ccccc34)[C@@](C(=O)OC)(c3cc4c(cc3OC)N(C)[C@H]3[C@@](O)(C(=O)OC)[C@H](OC(C)=O)[C@]5(CC)C=CCN6CC[C@]43[C@@H]65)C2)C1` [vinblastine], the “Cleavage of components of the clathrin machinery” value (BJAB or Colo205 cells) was “induced cleavage of components of the clathrin machinery, albeit with much slower kinetics than DR ligands”.

B1: FasL: Flag-tagged FasL, crosslinked; SEQ ID NO: 9 (protein, listed as Homo sapiens)
chain: MQQPFNYPYPQIYWVDSSASSPWAPPGTVLPCPTSVPRRPGQRRPPPPPPPPPLPPPPPPPPLPPLPLPPLKKRGNHSTGLCLLVMFFMVLVALVGLGLGMFQLFHLQKELAELRESTSQMHTASSLEKQIGHPSPPPEKKELRKVAHLTGKSNSRSMPLEWEDTYGIVLLSGVKYKKGGLVINETGLYFVYSKVYFRGQSCNNLPLSHKVYMRNSKYPQDLVMMEGKMMSYCTTGQMWARSSYLGAVFNLTSADHLYVNVSELSLVNFEESQTFFGLYKL
modifications: Flag tag, crosslinked
B1 was tested, and the “Cleavage of AP2α and CHC” value ([1]; BJAB cells, crosslinked ligand) was “stimulated cleavage of AP2α and CHC in BJAB cells comparably to Apo2L/TRAIL”, the “Processing of AP2α and CHC” value ([1]; caspase-8-deficient or FADD-deficient mutant Jurkat cell lines) was “neither ligand stimulated processing of these targets” and the “Cleavage of AP2α and CHC” value ([1]; wt Jurkat T cells) was “induced cleavage of AP2α and CHC”. For the same molecule, the “DISC assembly with Tf endocytosis blocked” value (DISC) was “still recruited FADD and caspase-8 to their respective receptors and processed caspase-8”.
